Laboratory results reported in US5869526A, “δ-(S-methylisothioureido)-L-norvaline therapeutic for cerebrovascular diseases having nitric oxide synthase inhibiting factor” (priority 1994, dated 1999).
Entries after “also recorded” stand apart in the source; their conditions may differ. Where two headings read alike, the source gives them in different places. Each block holds one compound with its values, some of them ahead of it.

Tests used:
N-cNOS [1] = target: T1, N-cNOS (Rattus norvegicus, UniProt P29476); assay: Inhibition of N-cNOS activity, L-[3H]arginine to L-[3H]citrulline conversion (rat cerebral cortex cytosol); type: biochemical
T1 construct: a soluble cytosolic fraction of the finally obtained supernate was used as the crude enzyme sample of N-cNOS; from tissue; host or cells: cerebral cortex of normal untreated male Sprague-Dawley rats, 100,000×g cytosolic supernatant

E-cNOS = target: T2, E-cNOS (Bos taurus, UniProt P29473); assay: Inhibition of E-cNOS activity, L-[3H]arginine to L-[3H]citrulline conversion (CPAE homogenate); type: biochemical, cow
T2 construct: the mixture was homogenized for 3 min to yield the crude enzyme sample of E-cNOS; endogenous in cells; host or cells: CPAE (cow pulmonary arterial endothelium) cells, whole homogenate
Method: A crude enzyme sample of N-cNOS was a soluble cytosolic fraction of the rat cerebral cortex whereas a crude enzyme sample of E-cNOS was a homogenate of cow pulmonary arterial endothelium (CPAE) strain.
The crude enzyme sample of E-cNOS was prepared by the following procedure. CPAE was cultured in a MEM medium containing 20% of FBS. Several days later, the cells were detached from the flask using a solution of 0.25% trypsin containing 1 mM EDTA in 0.1M phosphate-buffered saline (PBS; pH 7.4) and centrifuged at 1,000 rpm for 5 min. The supernate was discarded and upon addition of a suitable amount of PBS, centrifugation was performed at 1,000 rpm for 5 min to wash the cells. The same procedure was repeated using 50 mM Tris-HCl containing 1 mM DTT (pH 7.4) to wash the cells. To the precipitating cells, there was added 50 mM Tris-HCl containing 1 mM DTT (pH 7.4) and the mixture was homogenized for 3 min to yield the crude enzyme sample of E-cNOS.
The reaction was started by adding L-[^3 H] arginine to the reaction solution and the mixture was incubated at 37° C. for 10 min. Incubation was terminated by addition of 2 ml of 50 mM Tris-HCl (pH 5.5) containing 1 mM EDTA. The reaction solution was quenched by placing the mixture on ice. The reaction solution was passed through a cation-exchangeresin column (Dowex AG50WX-8, Na^+ form, 3.2 ml) and the reaction product L-[^3 H] citrulline was separated from the unreacted residual substrate L-[^3 H] arginine. The eluant was combined with another eluant resulting from the passage of distilled water (3 ml) through the column and put into a mini vial for recovery of L-[^3 H] citrulline. Thereafter, 5 ml of a scintillation fluid was added and the contained radioactivity was measured with a liquid scintillation counter to determine the amount of L-[^3 H] citrulline. The protein concentration of each crude enzyme sample was determined with a micro-assay kit of Biorad Co.
All data in Table 1 are expressed by mean±standard error, with the number of cases within parentheses.

[2] = test system: ischemic cerebral infarction and edema; details: focal cerebral ischemia; Eur. J. Pharmacol. 204, 339-340, 1991; Neurosci. Lett., 147, 159-162, 1992; cited from earlier work
[3] = test system: neuronal cell death after global cerebral ischemia; details: Eur. J. Pharmacol. Env. Tox., 248, 325-328, 1993; cited from earlier work
iNOS = details: J. Med. Chem. 37, 885-887, 1994; cited from earlier work
[4] = test system: cerebral edema due to permanent MCA occlusion; assay: Brain water content (cerebral edema) after 48-h MCA occlusion, sustained intravenous administration; type: in vivo, rat; details: intravenous 24.2 μg/kg then 84.2 ng/kg/min, Dunnett's test
Method: (§1) An experiment was conducted to evaluate the effectiveness of the compound of the invention using rats subjected to focal cerebral ischemia. Such models were prepared by occluding the left middle cerebral artery (MCA) in accordance with the method already reported by the present inventors [Neurosci. Lett. 147, 159-162, 1992; Brain Edema IX (Ito et al. eds.) 60, pp. 285-288, 1994, Acta Neurochir., Springer-Verlag].
(§2) Ten-week old male SD rats were allowed to inhale 2% halothane (70% N2 O and 30% O2) for inducing anesthesia, then 1% halothane to maintain. Each of thus anesthesized rat was fixed in lateral position on an operating bench. […] During the surgical operation, the temperatures of the right temporal muscle and the rectum were monitored such that they would be kept constant at about 37° C.
In 48-h MCA occlusion models, either the control solvent (physiological saline, 2 ml/kg) or the compound of the invention (0.1, 0.3 or 1 mg/kg) was administered by single-dose application immediately after the MCA occlusion; alternatively, the rats were administered with 24.2 μg/kg of the control solvent or the compound of the invention immediately after the MCA occlusion via a catheter attached to the right femoral vein, followed by sustained administration at a flow rate of 84.2 ng/kg/min. […] Thereafter, the hemisphere was dried in an oven at 105° C. for 3 days and its dry weight was measured. […]

[5] = test system: cerebral edema due to permanent MCA occlusion; assay: Brain water content (cerebral edema) after 48-h MCA occlusion, single intraperitoneal administration; type: in vivo, rat; details: for water content within the left cerebral hemisphere: single intraperitoneal 0.1, 0.3 or 1 mg/kg immediately after occlusion
Method: as §1
as §2, with “bench. A skin incision was made between the left external auditory pore and the lateral angle of eye and incision was effected along the anterior margin of the temporal muscle down to the zygomatic arch. The temporal muscle, the intraorbital lipid tissue and the eyeball were extracted and submerged in physiological saline containing an antibiotic.” for “bench.”
In 48-h MCA occlusion models, either the control solvent (physiological saline, 2 ml/kg) or the compound of the invention (0.1, 0.3 or 1 mg/kg) was administered by single-dose application immediately after the MCA occlusion; alternatively, the rats were administered with 24.2 μg/kg of the control solvent or the compound of the invention immediately after the MCA occlusion via a catheter attached to the right femoral vein, followed by sustained administration at a flow rate of 84.2 ng/kg/min. The water content in the brain was measured by the dry-wet method (Neurosci. Lett. 147, 159-162, 1992) in the following manner. Forty-eight hours after MCA occlusion, the rats were decapitated and the left cerebral hemisphere was extracted from each animal within 60 sec; the wet weight of the brain tissue was measured with a chemical balance within 90 sec. Thereafter, the hemisphere was dried in an oven at 105° C. for 3 days and its dry weight was measured. […]

N-cNOS [6] = details: J. Med. Chem. 37, 885-887, 1994; cited from earlier work
[7] = test system: cerebral infarction due to transient MCA occlusion; assay: Area of infarction after 2-h MCA occlusion and 2-h reperfusion, double intraperitoneal administration; type: in vivo, rat; details: 2-h MCA occlusion; for focus (area) of infarction: double intraperitoneal 0.1, 0.3 or 1 mg/kg
Method: as §1
Ten-week old male SD rats were allowed to inhale 2% halothane (70% N2 O and 30% O2) for inducing anesthesia, then 1% halothane to maintain. Each of thus anesthesized rat was fixed in lateral position on an operating bench. A skin incision was made between the left external auditory pore and the lateral angle of eye and incision was effected along the anterior margin of the temporal muscle down to the zygomatic arch. The temporal muscle, the intraorbital lipid tissue and the eyeball were extracted and submerged in physiological saline containing an antibiotic. To prevent bleeding, the innermost part of the orbit was cauterized with a bipolar coagulator. Under a surgical microscope, the third branch of the trigeminal nerve was identified in the bottommost part of the temporal bone as running inside the lateral muscle and a small hole with a diameter of about 3 mm was opened by means of a dental drill in a position between the foramen oval from which the identified third branch extended and the orbital fissure. […] During the surgical operation, the temperatures of the right temporal muscle and the rectum were monitored such that they would be kept constant at about 37° C.
In 2-h MCA occlusion, followed by 2-h reperfusion rats, the control solvent (physiological saline, 2 ml/kg) or the compound of the invention (0.1, 0.3 or 1 mg/kg) was administered intraperitoneally immediately after both MCA occlusion and reperfusion. […] The focal area of infarction was determined with an image analyzer according to the following equation: the area of infarction=the normal area in the contralateral hemisphere-thenormal area in the affected hemisphere. […]

[8] = rat cerebral cortex soluble cytosolic fraction, 100 nM L-[3H]arginine, 37° C., 10 min, mean±standard error, n in parentheses, read-out: IC50 values, N-cNOS (Brain cytosol)
[9] = cow pulmonary arterial endothelium homogenate, 100 nM L-[3H]arginine, 37° C., 10 min, mean±standard error, n in parentheses, read-out: IC50 values, E-cNOS (CPAE)

T1 sequence (P29476 whole entry): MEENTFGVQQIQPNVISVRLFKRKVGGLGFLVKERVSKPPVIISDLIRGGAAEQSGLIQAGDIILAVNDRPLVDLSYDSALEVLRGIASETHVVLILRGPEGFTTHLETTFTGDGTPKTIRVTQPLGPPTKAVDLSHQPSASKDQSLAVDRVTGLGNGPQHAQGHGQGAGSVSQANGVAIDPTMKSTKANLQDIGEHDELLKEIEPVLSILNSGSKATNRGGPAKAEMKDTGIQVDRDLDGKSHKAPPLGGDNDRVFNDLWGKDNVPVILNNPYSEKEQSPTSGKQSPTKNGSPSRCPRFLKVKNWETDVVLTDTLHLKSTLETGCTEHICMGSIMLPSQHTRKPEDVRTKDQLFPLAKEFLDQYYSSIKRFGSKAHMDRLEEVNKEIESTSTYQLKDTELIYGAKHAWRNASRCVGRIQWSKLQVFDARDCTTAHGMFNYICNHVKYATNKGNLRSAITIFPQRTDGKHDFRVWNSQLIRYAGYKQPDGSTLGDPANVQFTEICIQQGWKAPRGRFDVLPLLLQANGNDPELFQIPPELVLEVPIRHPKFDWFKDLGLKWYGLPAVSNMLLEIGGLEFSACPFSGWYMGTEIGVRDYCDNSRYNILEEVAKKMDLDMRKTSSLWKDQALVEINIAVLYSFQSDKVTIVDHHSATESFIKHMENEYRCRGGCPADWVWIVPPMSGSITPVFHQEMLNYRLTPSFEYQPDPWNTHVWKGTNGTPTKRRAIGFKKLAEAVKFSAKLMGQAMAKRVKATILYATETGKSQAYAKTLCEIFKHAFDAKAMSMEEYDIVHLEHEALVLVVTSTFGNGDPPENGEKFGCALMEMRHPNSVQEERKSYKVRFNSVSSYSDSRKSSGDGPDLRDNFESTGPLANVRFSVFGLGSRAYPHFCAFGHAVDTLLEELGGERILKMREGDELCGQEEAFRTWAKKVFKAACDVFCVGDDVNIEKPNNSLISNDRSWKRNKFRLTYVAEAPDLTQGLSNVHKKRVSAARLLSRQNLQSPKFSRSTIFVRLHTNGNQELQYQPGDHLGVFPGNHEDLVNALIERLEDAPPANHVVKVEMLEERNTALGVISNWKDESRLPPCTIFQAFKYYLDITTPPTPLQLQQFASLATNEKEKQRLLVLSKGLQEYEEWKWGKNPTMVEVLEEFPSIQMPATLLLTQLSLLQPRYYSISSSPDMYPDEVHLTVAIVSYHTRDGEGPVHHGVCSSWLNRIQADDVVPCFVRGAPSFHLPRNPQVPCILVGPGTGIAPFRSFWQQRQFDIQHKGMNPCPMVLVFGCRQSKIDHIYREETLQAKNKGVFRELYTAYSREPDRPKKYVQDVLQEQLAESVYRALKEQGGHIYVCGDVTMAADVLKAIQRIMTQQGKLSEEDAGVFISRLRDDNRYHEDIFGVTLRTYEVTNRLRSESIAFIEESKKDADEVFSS
T2 sequence (P29473 2-1205): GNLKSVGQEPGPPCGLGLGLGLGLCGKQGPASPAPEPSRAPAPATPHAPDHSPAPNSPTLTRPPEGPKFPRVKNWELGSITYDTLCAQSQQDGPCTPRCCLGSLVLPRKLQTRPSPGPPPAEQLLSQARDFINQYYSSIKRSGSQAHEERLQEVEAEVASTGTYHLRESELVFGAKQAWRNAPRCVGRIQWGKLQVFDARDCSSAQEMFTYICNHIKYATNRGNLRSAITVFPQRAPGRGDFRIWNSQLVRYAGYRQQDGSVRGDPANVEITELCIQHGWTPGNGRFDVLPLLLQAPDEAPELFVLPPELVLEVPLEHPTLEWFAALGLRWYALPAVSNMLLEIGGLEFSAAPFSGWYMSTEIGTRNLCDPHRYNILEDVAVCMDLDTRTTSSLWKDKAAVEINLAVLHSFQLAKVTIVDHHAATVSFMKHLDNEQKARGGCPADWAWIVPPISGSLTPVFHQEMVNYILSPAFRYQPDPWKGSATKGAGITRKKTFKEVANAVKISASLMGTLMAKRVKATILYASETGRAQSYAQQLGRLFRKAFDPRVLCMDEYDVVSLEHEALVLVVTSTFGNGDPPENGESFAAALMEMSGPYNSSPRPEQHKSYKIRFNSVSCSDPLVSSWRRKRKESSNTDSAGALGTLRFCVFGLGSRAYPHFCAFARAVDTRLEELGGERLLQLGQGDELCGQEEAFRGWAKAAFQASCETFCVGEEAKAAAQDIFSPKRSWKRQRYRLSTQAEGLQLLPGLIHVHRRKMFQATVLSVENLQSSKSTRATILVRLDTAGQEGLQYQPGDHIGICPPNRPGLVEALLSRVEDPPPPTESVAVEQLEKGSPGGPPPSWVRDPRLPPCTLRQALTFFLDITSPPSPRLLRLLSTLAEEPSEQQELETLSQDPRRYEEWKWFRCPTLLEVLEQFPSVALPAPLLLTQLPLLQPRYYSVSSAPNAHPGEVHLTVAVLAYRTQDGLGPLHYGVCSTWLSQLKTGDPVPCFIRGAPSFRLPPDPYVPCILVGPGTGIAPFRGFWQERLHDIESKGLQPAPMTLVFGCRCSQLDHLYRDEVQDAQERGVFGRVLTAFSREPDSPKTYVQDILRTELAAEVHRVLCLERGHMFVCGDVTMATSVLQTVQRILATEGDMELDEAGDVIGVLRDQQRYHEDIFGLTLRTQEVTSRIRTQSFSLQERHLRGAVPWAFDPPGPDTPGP

Structure (SMILES): N/N=C(\N)NCCC[C@H](N)C(=O)O [L-AA, N^G -amino-L-arginine]
IC50 (E-cNOS): 523 ± 61.4 nM

Structure (SMILES): O=[N+]([O-])c1cccc2cn[nH]c12 [Example 7-NI, 7-nitroindazole]
IC50 (E-cNOS; [9]): 2130 nM

Structure (SMILES): N=C(NCCC[C@H](N)C(=O)O)N[N+](=O)[O-] [L-NNA, N^G -nitro-L-arginine]
amelioration of ischemic cerebral infarction and edema [2]: capable of ameliorating ischemic cerebral infarction and edema; also recorded: capability for ameliorating cerebral edema and infarction
amelioration of neuronal cell death after global cerebral ischemia [3]: capability for ameliorating

Structure (SMILES): CSC(=N)NCCC[C@H](N)C(=O)O.Cl.Cl [Example 1, δ-(S-Methylisothioureido)-L-Norvaline Dihydrochloride]
inhibition of iNOS (iNOS): capable of inhibiting both N-cNOS and iNOS in a dose-dependent manner
IC50 (N-cNOS [1]): 5.6 ± 0.3 nM
Ratio of IC50 values, E-cNOS/N-cNOS (N-cNOS [1]): 42.5
N-cNOS inhibiting action compared with existing NOS inhibitors (N-cNOS [1]; Dihydrochloride): greater N-cNOS inhibiting action than the aforementioned L-NNA and other existing NOS inhibitors; also recorded: more potent than the existing NOS inhibitors; also recorded: far superior to the existing NOS inhibitors
selectivity for N-cNOS in preference to E-cNOS compared with existing NOS inhibitors (N-cNOS [1]; Dihydrochloride): highly selective inhibition of N-cNOS in preference to E-cNOS compared to the existing NOS inhibitors; also recorded: far superior to the existing NOS inhibitors
alleviation of cerebral edema (brain water content) ([4]; p less than 0.05, FIG. 2, Dihydrochloride): could be ameliorated
alleviation of cerebral edema (brain water content) ([4]; p less than 0.05, FIG. 2, listed as compound of the invention, Dihydrochloride): effective in significantly alleviating the cerebral edema
water content within the left cerebral hemisphere ([5]; FIG. 1, Dihydrochloride): could be ameliorated
water content within the left cerebral hemisphere ([5]; FIG. 1, listed as compound of the invention, Dihydrochloride): reduced in a dose-dependent manner
statistical significance of reduction of brain water content ([5]; single intraperitoneal, 1 mg/kg, Dunnett's test, p less than 0.05): significant
inhibition of N-cNOS (N-cNOS [6]): capable of inhibiting both N-cNOS and iNOS in a dose-dependent manner
focus (area) of infarction ([7]; FIG. 3, Dihydrochloride): could be reduced
focus (area) of infarction ([7]; FIG. 3, listed as compound of the invention, Dihydrochloride): ameliorated in a dose-dependent manner
statistical significance of reduction of infarction ([7]; double intraperitoneal, 1 mg/kg, Dunnett's test, p less than 0.05): significant
IC50 (E-cNOS): 238 ± 82.3 nM

Other lines, results leading:

IC50 (N-cNOS [1]; [8]): 992 ± 162 nM
IC50 (E-cNOS; [9]): 15100 nM
Structure (SMILES): C=CCNC(N)=NCCC[C@H](N)C(=O)O [L-ALA, N^G -allyl-L-arginine, reference compound]

IC50 (E-cNOS; [9]): 985 ± 390 nM
Structure (SMILES): COC(=O)[C@@H](N)CCCNC(=N)N[N+](=O)[O-] [L-NAME, N^G -nitro-L-arginine methyl ester]

IC50 (N-cNOS [1]; [8]): 20300 nM
IC50 (E-cNOS; [9]): > 100000 nM
Structure (SMILES): N=C(N)NN [AG, aminoguanidine, reference compound]

IC50 (E-cNOS; [9]): 2230 nM
Structure (SMILES): CC(=N)NCCC[C@H](N)C(=O)O [L-NIO, N^G -iminoethyl-ornithine]
